Measurements from patent publication US12350270B2, “Antimalarial agents” (Merck Sharp & Dohme LLC, priority 2019, dated 2025).

Key:
PMIX (plasmepsin IX) = experiment: Inhibition of PMIX function in parasite extracts: cleavage of PMIX substrates RAP1 and ASP, and PMIX autoprocessing; assay type: cell-based, P. falciparum
Procedure: To confirm that Example 1 was a dual inhibitor of PMX and PMIX function, the ability of this compound to inhibit cleavage of the known PMIX substrate Rhoptry Associated Protein 1 (RAP1) in parasite extracts was tested (Pino et al., 2017). RAP1 is a merozoite rhoptry protein that is localized to the parasitophorous vacuole after invasion and processed by both PMIX and SUB1 (Pino et al., 2017). […] RAP1 was not released into the parasite supernatant because it was deposited in the parasitophorous vacuole during the invasion process (Baldi, D., Andrews, K., Waller, R., Roos, D., Howard, R., Crabb, B. and Cowman, A. (2000)). RAP1 controls rhoptry targeting of RAP2 in the malaria parasite Plasmodium falciparum. Embo Journal 19, 2435-2443.
The development of Example 1 as a PMIX/PMX dual inhibitor of the P. falciparum parasite has allowed for the analysis of the function of these aspartic acid proteases. To do this, PMIX was processed to a 55 kDa (p55) protein and this was not inhibited by E64.

PMX (plasmepsin X) = target: T1, PMX (plasmepsin X) (Plasmodium falciparum, UniProt Q8IAS0); conditions: negative control, literature (Salmon et al. 2001); cited from earlier work
T1 construct: endogenous in cells
T1 sequence (Q8IAS0 222-573): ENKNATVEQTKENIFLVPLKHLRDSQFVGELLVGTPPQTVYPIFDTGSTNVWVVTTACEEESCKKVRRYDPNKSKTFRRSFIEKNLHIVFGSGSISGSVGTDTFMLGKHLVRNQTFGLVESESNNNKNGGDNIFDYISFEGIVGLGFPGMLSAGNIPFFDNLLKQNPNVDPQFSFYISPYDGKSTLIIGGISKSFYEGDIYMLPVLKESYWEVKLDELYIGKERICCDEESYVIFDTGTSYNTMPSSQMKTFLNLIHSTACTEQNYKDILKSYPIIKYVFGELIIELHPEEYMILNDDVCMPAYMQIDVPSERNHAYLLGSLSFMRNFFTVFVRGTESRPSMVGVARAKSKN

CC(C)C[C@H](NC(=O)[C@H]1O[C@@H]1C(=O)O)C(=O)NCCCCN=C(N)N [Example E64]
ASP cleavage (p87 to p47) by PMIX (PMIX (plasmepsin IX); treated parasites): processed into a 47 kDa polypeptide (p47) | PMIX processing to 55 kDa (p55) protein (autocatalytic cleavage) (PMIX (plasmepsin IX); treated parasites): not inhibited | RAP1 processing (p87 to p82 and p69) by PMIX and SUB1 (PMIX (plasmepsin IX); treated parasites / merozoites): processed normally by PMIX and SUB1 | SERAS processing (PMX (plasmepsin X)): does not affect SERAS processing
